# Tests used:
# [1] = system: Cannabis (Cs) apical cuttings; experiment: Plant growth regulators delivered with ONB in hydroponics, plant growth; format: in vivo, Cannabis sativa; conditions: ONB compared to tap water as delivery system; 14 days hydroponics
# Method: Hydroponic experiments were set up in glasshouse conditions: day temp. 25° C., night temp. 18° C., 16/8 h day/night and 150 μmol m^−2 s^−1 light intensity. Cannabis (Cs) apical cuttings were treated with Gibberellic acid A3 (GA3; Duchefa, G0907) at 12 mg/L final concentration, similar to Mansouri et al. (2011) or with DL-carnitine hydrochloride (Merck S7021474 Cas-No 461-05-2, 8.41774.0025) at 1 mM/L final concentration, as in Signem Oney-Birol (2019).
# All solutions were prepared first in buckets, pH adjusted to 6.0. The liquid feed (Canna coco A+B) was added at the concentration: 4 mL of coco A and 4 mL of coco B per 1 L water; electric conductivity EC=2.0 mS/cm. Next the solutions were run through a fine bubble generator (Anzaikantetsu Co, AZ-FB-20ASVV) with a 0.75 standard litres per minute (SLPM) O2 flow and 800 L/H water flow. Each 25 L bucket was run for 30 min through the nozzle. EC and pH were checked and adjusted to the right level daily. Plants were grown in hydroponics for 14 days. Plant growth was monitored and compared to controls. Plant growth was determined by measurement of major growth parameters including plant height, whole plant fresh weight and number of stems. […]
# lettuce (Lactuca sativa) = experiment: Ultrasonic fogging of leaves with air nanobubble water, fresh weight; format: in vivo; conditions: var. Tango, 14 days, fog from air nanobubble water, source solution 1.65 mg/L
# Method: Seedlings of various lettuce varieties (Lactuca sativa) were exposed to ultrasonic fog generated from water that contained air nanobubbles carrying MVOCs.
# Albuterol Sulfate 98.5% (Spectrum Chemical, New Brunswick, NJ, USA) was diluted in tap water at 1.65 mg/L. Five litres was then placed in a container that was pressurized by an air compressor at 1.3 bar. Gas flow from the pressurized container was directed to a nanobubble generator installed in a recirculating flow of water totaling 60 L. After a minimum of 2 hr treatment, 4 L of nanobubble treated water was removed from the recirculating system and placed in a rectangular plastic reservoir with a total capacity of 6 L. A three head ultrasonic fog generator was then placed in the reservoir, and the reservoir was placed in an enclosed plant growth chamber. Seeds of lettuce (Lactuca sativa, var. Tango) were planted in 2.5 cm square cells filled with ProMix growing media. Upon shoot emergence, seedlings were placed in the growth chamber and fog treatments began. A ‘control’ group of plants was placed in a different section of the growth chamber that was not subjected to any treatment. Growing parameters within the chambers were maintained at levels suitable for the crop, including a photoperiod of 16 hr/day. […] After 14 days, all plants were harvested and fresh weight recorded.
Compound,Plant height and biomass [1],Average increase in weight compared to control plants (lettuce (Lactuca sativa))
"C[N+](C)(C)CC(O)CC(=O)O.[Cl-] (racemic) [DL-carnitine, DL-carnitine hydrochloride]",Increased plant height and biomass,–
"C=C1C[C@]23C[C@@]1(O)CC[C@H]2[C@@]12C=C[C@H](O)[C@@](C)(C(=O)O1)[C@H]2[C@@H]3C(=O)O [gibberellic acid, Gibberellic acid A3]",Increased plant height and biomass,–
Albuterol Sulfate,–,over 30%

# From patent US20240093213A1, “PROCESSES, SYSTEMS AND MEDIA FOR DELIVERING A SUBSTANCE TO A PLANT” (EPIGENETICA LIMITED, priority 2020, published 2024)
